Source: ChEMBL document CHEMBL3885861, “Open TG-GATES”

Species on record: Rattus norvegicus
Assay: Open TG-GATES - Regimen: Daily Repeat
Format: toxicity, organism-based, Sprague-Dawley
Design: regimen Daily Repeat, gender Male, age 6 weeks
Conditions: in vivo, po, route gavage; for APTT / Bas / Eos / Fbg / Ht / Lym / MCHC / MCV / Mono / Neu / PT / Plat / RBC / Ret: tissue Blood; for KIDNEY_L / KIDNEY_R / KIDNEY_TOTAL: tissue Kidney; for AST / CRE / GLC / IP / K / LDH / RALB / TBIL / TC / TP / gamma-GTP: tissue Plasma
[1] = 30 mg/kg, 72 h, dose level Middle, time 3 day
[2] = 30 mg/kg, […], dose level Middle, time 7 day
[3] = 30 mg/kg, […], dose level Middle, time 14 day
[4] = 30 mg/kg, […], dose level Middle, time 28 day
[5] = 100 mg/kg, 72 h, dose level High, time 3 day
[6] = 100 mg/kg, […], dose level High, time 7 day
[7] = 100 mg/kg, […], dose level High, time 14 day
[8] = 100 mg/kg, […], dose level High, time 28 day

CN(C)CCCN1c2ccccc2CCc2ccccc21 [IMIPRAMINE]
TERMINAL_BW [1]: 214.6 g
APTT [1]: 16.4 s
Bas [1]: 0%
Eos [1]: 1.4%
Fbg [1]: 303.4 mg/dL
Ht [1]: 44.3%
Lym [1]: 83.8%
MCHC [1]: 33%
MCV [1]: 61.8 fL
Mono [1]: 2%
Neu [1]: 12%
PT [1]: 16.9 s
Plat [1]: 115.8 x10_4/uL
RBC [1]: 717.2 x10_4/ul
Ret [1]: 3.2%
KIDNEY_L [1]: 0.9 g
KIDNEY_R [1]: 0.9 g
KIDNEY_TOTAL [1]: 1.8 g
AST [1]: 58.8 IU/L
CRE [1]: 0.2 mg/dL
GLC [1]: 182.4 mg/dL
IP [1]: 7.6 mg/dL
K [1]: 4.3 meq/L
LDH [1]: 90.4 IU/L
RALB [1]: 2.6 g/dL
TBIL [1]: 0.058 mg/dL
TC [1]: 77 mg/dL
TP [1]: 5.9 g/dL
gamma-GTP [1]: 1 IU/L
TERMINAL_BW [2]: 244.7 g
TERMINAL_BW [3]: 294.7 g
TERMINAL_BW [4]: 362.7 g
APTT [2]: 16.2 s
Bas [2]: 0%
Eos [2]: 1%
Fbg [2]: 323.8 mg/dL
Ht [2]: 41.6%
Lym [2]: 78.6%
MCHC [2]: 33%
MCV [2]: 61.3 fL
Mono [2]: 2%
PT [2]: 16.1 s
Plat [2]: 118.6 x10_4/uL
RBC [2]: 678.2 x10_4/ul
Ret [2]: 3.9%
APTT [3]: 16.3 s
Bas [3]: 0%
Eos [3]: 1.2%
Fbg [3]: 303.2 mg/dL
Ht [3]: 42.5%
Lym [3]: 75.8%
MCHC [3]: 33.4%
MCV [3]: 59.7 fL
Mono [3]: 2.6%
PT [3]: 16.3 s
Plat [3]: 107.7 x10_4/uL
RBC [3]: 712.4 x10_4/ul
Ret [3]: 4.3%
APTT [4]: 16.2 s
Bas [4]: 0.2%
Eos [4]: 1.2%
Fbg [4]: 305.2 mg/dL
Ht [4]: 45.7%
Lym [4]: 80.4%
MCHC [4]: 33.7%
MCV [4]: 57.1 fL
Mono [4]: 2%
PT [4]: 16.3 s
Plat [4]: 101.3 x10_4/uL
RBC [4]: 801 x10_4/ul
Ret [4]: 2.4%
KIDNEY_L [2]: 1.1 g
KIDNEY_R [2]: 1.1 g
KIDNEY_TOTAL [2]: 2.1 g
KIDNEY_L [3]: 1.2 g
KIDNEY_R [3]: 1.2 g
KIDNEY_TOTAL [3]: 2.4 g
KIDNEY_L [4]: 1.3 g
KIDNEY_R [4]: 1.3 g
KIDNEY_TOTAL [4]: 2.7 g
AST [2]: 59 IU/L
CRE [2]: 0.2 mg/dL
GLC [2]: 173 mg/dL
IP [2]: 7 mg/dL
K [2]: 4.2 meq/L
LDH [2]: 88.8 IU/L
RALB [2]: 2.5 g/dL
TBIL [2]: 0.044 mg/dL
TC [2]: 85 mg/dL
TP [2]: 5.8 g/dL
gamma-GTP [2]: 0.4 IU/L
AST [3]: 53.6 IU/L
CRE [3]: 0.2 mg/dL
GLC [3]: 170.8 mg/dL
IP [3]: 6.9 mg/dL
K [3]: 4.3 meq/L
LDH [3]: 100.6 IU/L
RALB [3]: 2.6 g/dL
TBIL [3]: 0.046 mg/dL
TC [3]: 88.2 mg/dL
TP [3]: 5.9 g/dL
gamma-GTP [3]: 0.6 IU/L
AST [4]: 53.8 IU/L
CRE [4]: 0.2 mg/dL
GLC [4]: 164.6 mg/dL
IP [4]: 7 mg/dL
K [4]: 4 meq/L
LDH [4]: 45.4 IU/L
RALB [4]: 2.7 g/dL
TBIL [4]: 0.056 mg/dL
TC [4]: 73.8 mg/dL
TP [4]: 6.3 g/dL
gamma-GTP [4]: 1 IU/L
TERMINAL_BW [5]: 197.8 g
APTT [5]: 15.5 s
Bas [5]: 0%
Eos [5]: 1%
Fbg [5]: 334.4 mg/dL
Ht [5]: 45.9%
Lym [5]: 74.8%
MCHC [5]: 33%
MCV [5]: 62.6 fL
Mono [5]: 2.4%
PT [5]: 16.5 s
Plat [5]: 126.7 x10_4/uL
RBC [5]: 733.8 x10_4/ul
Ret [5]: 2.8%
KIDNEY_L [5]: 0.9 g
KIDNEY_R [5]: 0.9 g
KIDNEY_TOTAL [5]: 1.8 g
AST [5]: 57.2 IU/L
CRE [5]: 0.2 mg/dL
GLC [5]: 163.8 mg/dL
IP [5]: 7.8 mg/dL
K [5]: 4.3 meq/L
LDH [5]: 57.8 IU/L
RALB [5]: 2.5 g/dL
TBIL [5]: 0.05 mg/dL
TC [5]: 93.8 mg/dL
TP [5]: 5.7 g/dL
gamma-GTP [5]: 0.8 IU/L
TERMINAL_BW [6]: 201.5 g
TERMINAL_BW [7]: 221.4 g
TERMINAL_BW [8]: 293.5 g
APTT [6]: 15.9 s
Bas [6]: 0%
Eos [6]: 1%
Fbg [6]: 347.8 mg/dL
Ht [6]: 45.6%
Lym [6]: 82.8%
MCHC [6]: 33.3%
MCV [6]: 59.9 fL
Mono [6]: 1.8%
PT [6]: 16.9 s
Plat [6]: 109.5 x10_4/uL
RBC [6]: 762.2 x10_4/ul
Ret [6]: 1.4%
APTT [7]: 18 s
Bas [7]: 0.4%
Eos [7]: 1.4%
Fbg [7]: 329.4 mg/dL
Ht [7]: 46.8%
Lym [7]: 69.8%
MCHC [7]: 33.5%
MCV [7]: 60.2 fL
Mono [7]: 4.4%
PT [7]: 17.3 s
Plat [7]: 98.5 x10_4/uL
RBC [7]: 777.6 x10_4/ul
Ret [7]: 1.7%
APTT [8]: 16.4 s
Bas [8]: 0.2%
Eos [8]: 1.2%
Fbg [8]: 377.5 mg/dL
Ht [8]: 46.7%
Lym [8]: 70%
MCHC [8]: 33.8%
MCV [8]: 55.4 fL
Mono [8]: 3%
Neu [8]: 25.2%
PT [8]: 16 s
Plat [8]: 93.4 x10_4/uL
RBC [8]: 842.5 x10_4/ul
Ret [8]: 2.6%
KIDNEY_L [6]: 1 g
KIDNEY_R [6]: 0.9 g
KIDNEY_TOTAL [6]: 1.9 g
KIDNEY_L [7]: 1 g
KIDNEY_R [7]: 0.9 g
KIDNEY_TOTAL [7]: 1.9 g
KIDNEY_L [8]: 1.2 g
KIDNEY_R [8]: 1.2 g
KIDNEY_TOTAL [8]: 2.4 g
AST [6]: 51.6 IU/L
CRE [6]: 0.2 mg/dL
GLC [6]: 162.6 mg/dL
IP [6]: 7.2 mg/dL
K [6]: 4.1 meq/L
LDH [6]: 79 IU/L
RALB [6]: 2.5 g/dL
TBIL [6]: 0.048 mg/dL
TC [6]: 102.6 mg/dL
TP [6]: 5.6 g/dL
gamma-GTP [6]: 0.2 IU/L
AST [7]: 75.8 IU/L
CRE [7]: 0.2 mg/dL
GLC [7]: 155.8 mg/dL
IP [7]: 6.9 mg/dL
K [7]: 4.2 meq/L
LDH [7]: 73.6 IU/L
RALB [7]: 2.6 g/dL
TBIL [7]: 0.04 mg/dL
TC [7]: 74.6 mg/dL
TP [7]: 5.8 g/dL
gamma-GTP [7]: 1.2 IU/L
AST [8]: 56 IU/L
CRE [8]: 0.2 mg/dL
GLC [8]: 148.5 mg/dL
IP [8]: 7 mg/dL
K [8]: 4.3 meq/L
LDH [8]: 40.5 IU/L
RALB [8]: 2.7 g/dL
TBIL [8]: 0.0425 mg/dL
TC [8]: 91.8 mg/dL
TP [8]: 6.2 g/dL
gamma-GTP [8]: 0.5 IU/L
